# Where “and” joins values, the source holds several entries; their conditions need not be identical. Equal values may be shown once.
# Columns and labels:
# [1] = molecular target: EP2 (Homo sapiens (Human), UniProt P43116); assay: Competition binding ([3H]PGE2), EP2; settings: HEK 293 cells stably expressing human EP2 receptors, [3H]PGE2 10 nM
# Method: Competition binding experiments were performed in a medium containing Hank's balanced salt solution, HEPES 20 mM, pH 7.3, membranes (˜60 μg protein) or 2×10^5 cells from HEK 293 cells stably expressing human EP2 receptors, [^3H]PGE2 (10 nM) and various concentrations of test compounds in a total volume of 300 μl. Reaction mixtures were incubated at 23° C. for 60 min, and were filtered over Whatman GF/B filters under vacuum. Filters were washed three times with 5 ml ice-cold buffer containing 50 mM Tris/HCl (pH 7.3). Non-specific binding was estimated in the presence of excess unlabeled PGE2 (10 μM). Binding data fitted to the binding model for a single class of binding sites, using nonlinear regression analysis. IC50 values thus obtained were converted to Ki using the equation of Ki=(IC50/(1+[L]/KD) where [L] represents PGE2 concentration (10 nM) and KD the dissociation constant for [^3H]PGE2 at human EP2 receptors (40 nM).
# [2] = molecular target: T1, EP4 (Homo sapiens (Human), UniProt P35408); assay: cAMP assay, EP4; assay type: cell-based; settings: HEK-EBNA cells expressing EP4
# Method: A 384-well drug plate was prepared to contain 6 test compounds, PGE2 and cAMP in 16 serial dilutions in triplicate, using a Biomek station. HEK-EBNA cells expressing a target PG receptor subtype (EP2 or EP4) were suspended in a stimulation buffer (HBSS, 0.1% BSA, 0.5 mM IBMX and 5 mM HEPES, pH 7.4) in a density of 10^4 cells/5 microliters. The reaction was initiated by mixing 5 microliters drug dilutions with 5 microliters of HEK-EBNA cells in a well, carried out for 30 min at room temperature, and followed by the addition of 5 microliters anti-cAMP acceptor beads in the control buffer with Tween-20 (25 mM NaCl, 0.03% Tween-20, 5 mM HEPES, pH 7.4). After 30 min in the dark at room temperature, the mixtures were incubated with 15 microliters biotinylated-cAMP/streptavidin donor beads in Lysis/Detection buffer (0.1% BSA, 0.3% Tween-20 and 5 mM HEPES, pH 7.4) for 45 min at room temperature. Fluorescence changes were read using a Fusion-alpha microplate reader.
# [3] = molecular target: T1, EP4; assay: Competition binding, EP4
# T1 sequence (P35408 whole entry): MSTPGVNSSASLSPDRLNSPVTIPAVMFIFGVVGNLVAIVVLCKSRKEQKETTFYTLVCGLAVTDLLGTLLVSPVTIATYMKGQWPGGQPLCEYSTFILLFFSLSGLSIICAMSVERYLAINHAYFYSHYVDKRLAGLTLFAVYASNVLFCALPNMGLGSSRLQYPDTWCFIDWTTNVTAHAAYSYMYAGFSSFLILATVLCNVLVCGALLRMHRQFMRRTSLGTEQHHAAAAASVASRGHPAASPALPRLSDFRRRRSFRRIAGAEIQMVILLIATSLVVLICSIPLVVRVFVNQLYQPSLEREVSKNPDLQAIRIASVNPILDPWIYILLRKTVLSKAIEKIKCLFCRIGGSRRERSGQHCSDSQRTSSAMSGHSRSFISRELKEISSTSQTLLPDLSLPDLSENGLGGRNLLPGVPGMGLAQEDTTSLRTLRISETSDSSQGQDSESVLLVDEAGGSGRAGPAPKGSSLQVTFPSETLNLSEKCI
# Chain of EP2 (P43116 whole entry): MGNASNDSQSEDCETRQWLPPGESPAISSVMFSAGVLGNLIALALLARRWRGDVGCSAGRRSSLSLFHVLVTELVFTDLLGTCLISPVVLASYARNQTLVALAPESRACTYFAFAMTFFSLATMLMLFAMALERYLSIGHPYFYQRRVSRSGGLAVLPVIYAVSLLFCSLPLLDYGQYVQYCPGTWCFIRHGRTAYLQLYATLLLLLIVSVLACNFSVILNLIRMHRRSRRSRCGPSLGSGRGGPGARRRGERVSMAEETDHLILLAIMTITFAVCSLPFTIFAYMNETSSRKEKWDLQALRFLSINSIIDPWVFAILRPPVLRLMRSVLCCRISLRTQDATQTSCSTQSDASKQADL
SMILES,EP2 Ki [1] [nM],EC50 [2],Ki [3] [nM],EP4 cAMP EC50 [2] [nM],Ki [1] [nM],EP4 Ki [3] [nM]
"O=C(O)c1ccc(CCCN2C(=O)CC[C@@H]2/C=C/C(O)c2cccc(-c3ccccc3)c2)cc1 (single isomer, unassigned) [Example 6]",> 10000,–,6710,> 10000,–,–
"O=C(O)c1ccc(CCCN2C(=O)CC[C@@H]2/C=C/C(O)c2cccc(-c3ccccc3)c2)cc1 (single isomer, unassigned) [Example 5]",> 10000,–,8560,–,–,–
"O=C(O)c1ccc(CCCN2C(=O)CC[C@@H]2/C=C/C(O)c2ccccc2)cc1 (single isomer, unassigned) [Example 3]",> 10000,9210 nM,–,–,–,> 10000
"Cc1cc(Cl)ccc1-c1cc(F)cc(C(O)/C=C/[C@H]2CCC(=O)N2CCCc2ccc(C(=O)O)cc2)c1 (single isomer, unassigned) [Example 35]",> 10000,59 nM and 99 nM,352,–,–,–
"Cc1cc(Cl)ccc1-c1cc(C(O)/C=C/[C@H]2CCC(=O)N2CCCc2ccc(C(=O)O)cc2)ccc1F (single isomer, unassigned) [Example 36]",> 10000,1030 nM,4480,–,–,–
"O=C(O)c1ccc(CCCN2C(=O)CC[C@@H]2/C=C/C(O)c2cccc(Br)c2)cc1 (single isomer, unassigned) [Example 1]",> 10000,–,2040,> 10000,–,–
"Cc1ccccc1-c1cccc(C(O)/C=C/[C@H]2CCC(=O)N2CCCc2ccc(C(=O)O)cc2)c1 (single isomer, unassigned) [Example 7]",> 10000,14 nM,1150,–,–,–
"Cc1cc(Cl)cc(C)c1-c1cccc(C(O)/C=C/[C@H]2CCC(=O)N2CCCc2ccc(C(=O)O)cc2)c1 (single isomer, unassigned) [Example 20]",> 10000,138 nM,955,–,–,–
"O=C(O)c1ccc(CCCN2C(=O)CC[C@@H]2/C=C/C(O)c2cccc(-c3ccc(Cl)cc3CO)c2)cc1 (stereo partly drawn) [Example 19, 4-[3-(2(R)-{(1E)-3-[4′-chloro-2′-(hydroxymethyl)biphenyl-3-yl]-3-hydroxyprop-1-en-1-yl}-5-oxopyrrolidin-1-yl)propyl]benzoic acid]",> 10000,95 nM and 165 nM,658,–,–,–
"Cc1cc(Cl)ccc1-c1ccc(C(O)/C=C/[C@H]2CCC(=O)N2CCCc2ccc(C(=O)O)cc2)s1 (stereo partly drawn) [Example 33, 4-[3-(2(R)-{(1E)-3-[5-(4-chloro-2-methylphenyl)thiophen-2-yl]-3-hydroxyprop-1-en-1-yl}-5-oxopyrrolidin-1-yl)propyl]benzoic acid]",> 10000,118 nM,536,–,–,–
"O=C(O)c1ccc(CCCN2C(=O)CC[C@@H]2/C=C/C(O)c2ccccc2)cc1 (single isomer, unassigned) [Example 4]",> 10000,5540 nM,4970,–,–,–
"Cc1cc(Cl)ccc1-c1ccc(C(O)/C=C/[C@H]2CCC(=O)N2CCCc2ccc(C(=O)O)cc2)s1 (stereo partly drawn) [Example 32, 4-[3-(2(R)-{(1E)-3-[5-(4-chloro-2-methylphenyl)thiophen-2-yl]-3-hydroxyprop-1-en-1-yl}-5-oxopyrrolidin-1-yl)propyl]benzoic acid]",> 10000,–,4830,–,–,–
"Cc1cc(Cl)ccc1-c1cc(C(O)/C=C/[C@H]2CCC(=O)N2CCCc2ccc(C(=O)O)cc2)ccc1F (single isomer, unassigned) [Example 37]",–,123 nM and 211 nM,–,–,–,–
"Cc1cc(Cl)ccc1-c1cc(F)cc(C(O)/C=C/[C@H]2CCC(=O)N2CCCc2ccc(C(=O)O)cc2)c1 (single isomer, unassigned) [Example 34]",> 10000,1740 nM,4340,–,–,–

# Continued, in another order:
EP2 Ki [1] [nM],EC50 [2],Ki [3] [nM],EP4 cAMP EC50 [2] [nM],Ki [1] [nM],SMILES,EP4 Ki [3] [nM]
> 10000,2340 nM,1310,–,–,"CCCc1cc(Cl)ccc1-c1cccc(C(O)/C=C/[C@H]2CCC(=O)N2CCCc2ccc(C(=O)O)cc2)c1 (single isomer, unassigned) [Example 24]",–
> 10000,–,5160,–,–,"CCCCc1cc(Cl)ccc1-c1cccc(C(O)/C=C/[C@H]2CCC(=O)N2CCCc2ccc(C(=O)O)cc2)c1 (stereo partly drawn) [Example 28, 4-(3-{2(R)-[(1E)-3-(2′-butyl-4′-chlorobiphenyl-3-yl)-3-hydroxyprop-1-en-1-yl]-5-oxopyrrolidin-1-yl}propyl)benzoic acid]",–
> 10000,–,> 1340,–,–,"Cc1cc(F)ccc1-c1cccc(C(O)/C=C/[C@H]2CCC(=O)N2CCCc2ccc(C(=O)O)cc2)c1 (stereo partly drawn) [Example 11, 4-(3-{2(R)-[(1E)-3-(4′-fluoro-2′-methylbiphenyl-3-yl)-3-hydroxyprop-1-en-1-yl]-5-oxopyrrolidin-1-yl}propyl)benzoic acid]",–
> 10000,33 nM,216,–,–,"CCc1cc(Cl)ccc1-c1cccc(C(O)/C=C/[C@H]2CCC(=O)N2CCCc2ccc(C(=O)O)cc2)c1 (single isomer, unassigned) [Example 14]",–
> 10000,–,8850,> 10000,–,"CC(C)(C)c1cc(Cl)ccc1-c1cccc(C(O)/C=C/[C@H]2CCC(=O)N2CCCc2ccc(C(=O)O)cc2)c1 (stereo partly drawn) [Example 26, 4-(3-{2(R)-[(1E)-3-(2′-tert-butyl-4′-chlorobiphenyl-3-yl)-3-hydroxyprop-1-en-1-yl]-5-oxopyrrolidin-1-yl}propyl)benzoic acid]",–
> 10000,107 nM,757,–,–,"CC(C)(C)c1cc(Cl)ccc1-c1cccc(C(O)/C=C/[C@H]2CCC(=O)N2CCCc2ccc(C(=O)O)cc2)c1 (stereo partly drawn) [Example 27, 4-(3-{2(R)-[(1E)-3-(2′-tert-butyl-4′-chlorobiphenyl-3-yl)-3-hydroxyprop-1-en-1-yl]-5-oxopyrrolidin-1-yl}propyl)benzoic acid]",–
–,4 nM,23,–,4320,"Cc1cc(Cl)ccc1-c1cccc(C(O)/C=C/[C@H]2CCC(=O)N2CCCc2ccc(C(=O)O)cc2)c1 (stereo partly drawn) [Example 13, 4-(3-{2(R)-[(1E)-3-(4′-chloro-2′-methylbiphenyl-3-yl)-3-hydroxyprop-1-en-1-yl]-5-oxopyrrolidin-1-yl}propyl)benzoic acid]",–
> 10000,117 nM,319,–,–,"CCCCc1cc(Cl)ccc1-c1cccc(C(O)/C=C/[C@H]2CCC(=O)N2CCCc2ccc(C(=O)O)cc2)c1 (stereo partly drawn) [Example 29, 4-(3-{2(R)-[(1E)-3-(2′-butyl-4′-chlorobiphenyl-3-yl)-3-hydroxyprop-1-en-1-yl]-5-oxopyrrolidin-1-yl}propyl)benzoic acid]",–
> 10000,3 nM,11,–,–,"O=C(O)c1ccc(CCCN2C(=O)CC[C@@H]2/C=C/C(O)c2cccc(-c3ccc(Cl)cc3C(F)(F)F)c2)cc1 (single isomer, unassigned) [Example 17]",–
> 10000,35 nM,2340,–,–,"Cc1c(-c2cccc(C(O)/C=C/[C@H]3CCC(=O)N3CCCc3ccc(C(=O)O)cc3)c2)ccc(Cl)c1Cl (single isomer, unassigned) [Example 22]",–
> 10000,3 nM,140,–,–,"Cc1c(-c2cccc(C(O)/C=C/[C@H]3CCC(=O)N3CCCc3ccc(C(=O)O)cc3)c2)ccc(Cl)c1Cl (single isomer, unassigned) [Example 23]",–
> 10000,3 nM,6,–,–,"CCc1cc(Cl)ccc1-c1cccc(C(O)/C=C/[C@H]2CCC(=O)N2CCCc2ccc(C(=O)O)cc2)c1 (single isomer, unassigned) [Example 15]",–
> 10000,87 nM,332,–,–,"O=C(O)c1ccc(CCCN2C(=O)CC[C@@H]2/C=C/C(O)c2cccc(-c3ccc(Cl)cc3C(F)(F)F)c2)cc1 (single isomer, unassigned) [Example 16]",–
> 10000,60 nM,211,–,–,"CC(C)c1cc(O)ccc1-c1cccc(C(O)/C=C/[C@H]2CCC(=O)N2CCCc2ccc(C(=O)O)cc2)c1 (stereo partly drawn) [Example 31, 4-[3-(2(R)-{(1E)-3-hydroxy-3-[4′-hydroxy-2′-(propan-2-yl)biphenyl-3-yl]prop-1-en-1-yl}-5-oxopyrrolidin-1-yl)propyl]benzoic acid]",–
> 10000,134 nM,582,–,–,"CC(C)c1cc(O)ccc1-c1cccc(C(O)/C=C/[C@H]2CCC(=O)N2CCCc2ccc(C(=O)O)cc2)c1 (stereo partly drawn) [Example 30, 4-[3-(2(R)-{(1E)-3-hydroxy-3-[4′-hydroxy-2′-(propan-2-yl)biphenyl-3-yl]prop-1-en-1-yl}-5-oxopyrrolidin-1-yl)propyl]benzoic acid]",–
> 10000,63 nM,130,–,–,"CCCc1cc(Cl)ccc1-c1cccc(C(O)/C=C/[C@H]2CCC(=O)N2CCCc2ccc(C(=O)O)cc2)c1 (single isomer, unassigned) [Example 25]",–
